Measured values from publication PMC8286840, “Identifying SARS-CoV-2 antiviral compounds by screening for small molecule inhibitors of Nsp3 papain-like protease” (Biochemical Journal, 2021).
Where a name gives a salt, the structure may show the parent alone. Read-outs that look alike come from different tables or passages of the source.

Key:
[1] = biological target: T1, SARS-CoV-2 PLpro (nsp3 1564–1878) (Severe acute respiratory syndrome coronavirus 2, UniProt P0DTD1); test: biochemical; set-up: FRET-quenched peptide (Pro3) cleavage by PLpro, 10 min pre-incubation, slope over 20 min, normalised to no-compound control; conditions: high concentration screen, read-out: % of control remaining
[2] = biological target: T1, SARS-CoV-2 PLpro (nsp3 1564–1878); test: biochemical; set-up: FRET-quenched peptide (Pro3) cleavage by PLpro, 10 min pre-incubation, slope over 20 min, normalised to no-compound control; conditions: low concentration screen, read-out: % of control remaining

`CN1CCN2c3ccccc3Cc3ccccc3C2C1` (stereo not drawn) [Mianserin (hydrochloride)] gave a remaining activity at 3.75 µM ([1]; Well no.=7477) of 96.9% and a remaining activity at 1.25 µM ([2]; Well no.=7477) of 105%.
In the case of `CN1CCN2c3ccccc3Cc3ccccc3C2C1` (stereo not drawn) [Mianserin hydrochloride], the remaining activity at 3.75 µM ([1]; Well no.=874) is reported as 106% and the remaining activity at 1.25 µM ([2]; Well no.=874) is reported as 107%.
`CN1CCN2c3ccccc3Cc3ccccc3C2C1` (stereo not drawn) [Mianserin.HCl] was tested, and the remaining activity at 3.75 µM ([1]; Well no.=1540) was 101% and the remaining activity at 1.25 µM ([2]; Well no.=1540) was 100%.
Work on `COCC(=O)O[C@]1(CCN(C)CCCc2nc3ccccc3[nH]2)CCc2cc(F)ccc2[C@@H]1C(C)C` [Mibefradil dihydrochloride] yielded a remaining activity at 3.75 µM ([1]; Well no.=882) of 91.3% and a remaining activity at 1.25 µM ([2]; Well no.=882) of 99.7%.
In the case of `Clc1ccc(COC(Cn2ccnc2)c2ccc(Cl)cc2Cl)c(Cl)c1` (stereo not drawn) [Miconazole nitrate], the remaining activity at 3.75 µM ([1]; Well no.=4666) is reported as 103% and the remaining activity at 1.25 µM ([2]; Well no.=4666) is reported as 102%.
`Clc1ccc(COC(Cn2ccnc2)c2ccc(Cl)cc2Cl)c(Cl)c1` (stereo not drawn) [Miconazole] gave a remaining activity at 3.75 µM ([1]; Well no.=1965) of 92.2% and a remaining activity at 1.25 µM ([2]; Well no.=1965) of 86.9%.
`CC#C[C@]1(O)CC[C@H]2[C@@H]3CCC4=CC(=O)CCC4=C3[C@@H](c3ccc(N(C)C)cc3)C[C@@]21C` [Mifepristone] showed a remaining activity at 3.75 µM ([1]; Well no.=795) of 96.3%, a remaining activity at 3.75 µM ([1]; Well no.=2206) of 97.2% and a remaining activity at 3.75 µM ([1]; Well no.=6285) of 99.7%. For the same compound, the remaining activity at 1.25 µM ([2]; Well no.=795) was 103%, the remaining activity at 1.25 µM ([2]; Well no.=2206) was 93.5% and the remaining activity at 1.25 µM ([2]; Well no.=6285) was 97.9%.
With `OCCN1C[C@H](O)[C@@H](O)[C@H](O)[C@H]1CO` [Miglitol] the remaining activity at 3.75 µM ([1]; Well no.=8340) was 92.7% and the remaining activity at 1.25 µM ([2]; Well no.=8340) was 92.9%.
Work on `CCCCN1C[C@H](O)[C@@H](O)[C@H](O)[C@H]1CO` [Miglustat] yielded a remaining activity at 3.75 µM ([1]; Well no.=2252) of 95.8% and a remaining activity at 1.25 µM ([2]; Well no.=2252) of 97.5%.
For `Cc1[nH]c(=O)c(C#N)cc1-c1ccncc1` [Milrinone], the remaining activity at 3.75 µM ([1]; Well no.=832) was 101%, the remaining activity at 3.75 µM ([1]; Well no.=2150) was 97.1% and the remaining activity at 1.25 µM ([2]; Well no.=832) was 101%. The remaining activity at 1.25 µM ([2]; Well no.=2150) was 95.5%.
Compound `CCCCCCCCCCCCCCCCOP(=O)([O-])OCC[N+](C)(C)C` [Miltefosine] has a remaining activity at 3.75 µM ([1]; Well no.=1767) of 100% and a remaining activity at 1.25 µM ([2]; Well no.=1767) of 101%.
`CN(C)c1ccc(O)c2c1C[C@H]1C[C@H]3[C@H](N(C)C)C(O)=C(C(N)=O)C(=O)[C@@]3(O)C(O)=C1C2=O` [Minocycline hydrochloride] gave a remaining activity at 3.75 µM ([1]; Well no.=797) of 102% and a remaining activity at 1.25 µM ([2]; Well no.=797) of 104%.
`CN(C)c1ccc(O)c2c1C[C@H]1C[C@H]3[C@H](N(C)C)C(O)=C(C(N)=O)C(=O)[C@@]3(O)C(O)=C1C2=O` [Minocycline] gave a remaining activity at 3.75 µM ([1]; Well no.=1995) of 103% and a remaining activity at 1.25 µM ([2]; Well no.=1995) of 103%.
In the case of `Nc1cc(N2CCCCC2)nc(N)[n+]1[O-]` [Minoxidil], the remaining activity at 3.75 µM ([1]; Well no.=1070) is reported as 96.2%, the remaining activity at 3.75 µM ([1]; Well no.=1808) is reported as 90.5% and the remaining activity at 1.25 µM ([2]; Well no.=1070) is reported as 93.8%. For the same compound, the remaining activity at 1.25 µM ([2]; Well no.=1808) was 89.4%.
In the case of `Nc1nc(CC(=O)Nc2ccc(CCNC[C@H](O)c3ccccc3)cc2)cs1` [Mirabegron (YM178)], the remaining activity at 3.75 µM ([1]; Well no.=4652) is reported as 97.1% and the remaining activity at 1.25 µM ([2]; Well no.=4652) is reported as 99.3%.
`Nc1nc(CC(=O)Nc2ccc(CCNC[C@H](O)c3ccccc3)cc2)cs1` [Mirabegron] showed a remaining activity at 3.75 µM ([1]; Well no.=6273) of 116% and a remaining activity at 1.25 µM ([2]; Well no.=6273) of 107%.
`O=C(O)[C@H]1CCCN1C(=O)CCCCC(=O)N1CCC[C@@H]1C(=O)O` [Miridesap] showed a remaining activity at 3.75 µM ([1]; Well no.=8078) of 97.4% and a remaining activity at 1.25 µM ([2]; Well no.=8078) of 100%.
`CN1CCN2c3ncccc3Cc3ccccc3C2C1` (stereo not drawn) [Mirtazapine] gave a remaining activity at 3.75 µM ([1]; Well no.=6564) of 106% and a remaining activity at 1.25 µM ([2]; Well no.=6564) of 106%.
With `CO[C@H](C(=O)[C@@H](O)[C@@H](C)O)[C@@H]1Cc2cc3cc(O[C@H]4C[C@@H](O[C@@H]5C[C@@H](O)[C@H](O)[C@@H](C)O5)[C@H](O)[C@@H](C)O4)c(C)c(O)c3c(O)c2C(=O)[C@H]1O[C@H]1C[C@@H](O[C@@H]2C[C@@H](O)[C@@H](O[C@@H]3C[C@](C)(O)[C@H](O)[C@@H](C)O3)[C@@H](C)O2)[C@H](O)[C@@H](C)O1` [Mithramycin A] the remaining activity at 3.75 µM ([1]; Well no.=3411) was 101% and the remaining activity at 1.25 µM ([2]; Well no.=3411) was 96.9%.
With `O=C(O)[C@H](CC(=O)N1C[C@H]2CCCC[C@H]2C1)Cc1ccccc1` [Mitiglinide calcium] the remaining activity at 3.75 µM ([1]; Well no.=4888) was 96.8% and the remaining activity at 1.25 µM ([2]; Well no.=4888) was 95.5%.
